*1 amine or outer side, *2 acyl side, *3 side chain or, on linkers, in order; H or OH if unused. The star is where a group is joined. X1 = C[C@@H](CN*)NC(=O)[C@@H](N)Cc1c[nH]cn1; CO = O=C([*:1])[*:2]
Test system: C57BL/6J mice
Test: dose-response study in healthy mice, IPGTT 6 h after agonist
Format: in vivo, mouse
Method: Mice were lightly fasted (4 hours) before IP administration of varying doses of each agonist or vehicle (100 µL saline). After a further 6 hours, blood glucose was measured (GlucoRx) from the tail followed by IP administration of 2 g/kg 20% glucose. Blood glucose was monitored at 20, 40 and 60 minute time- […]
performed on the area-under-curve for each set of data.
Study in db/db mice (15 days).
After the acclimation period of 5 days, male db/db mice 8 weeks old (Charles River laboratories) were randomized into groups (n=10) according to their body weight, HOMA-IR and HbA1C measured after an overnight fast and 8 non diabetic mice were excluded. Mice were chronically treated during 15 days via s.c. route (once daily) at around 8AM with the vehicle or with 100 µg kg-1 (25 nmol kg-1) of the oligomers. Formulation: 20 µg mL-1 in PBS 1×. On the 7th day of treatment, fed blood glucose was […]
On the 12th day of treatment, mice were fasted 6 hours and an OGTT (glucose 1 g kg-1 p.o.) was performed 6 hours (2 PM) after the dosing. Blood glucose was […]
On the 15th day of treatment, mice were fasted 6 hours and an ITT (insulin 2 U kg-1 i.p.) was performed 6 hours (2 PM) after the dosing. […]
samples were collected for measuring HbA1c just before the start of the treatments and at the end of […]
Fifteen mice (male C57BL/6J mice (Janvier Labs, France) 9 weeks old, 20-25 g) were treated with GLP-1 analogues via i.v. injections (2 mg kg-1) formulated at 1 mg mL-1 in PBS 1×. After different time points mice were sacrificed and blood sample were collected. The plasma was separated by centrifugation and the samples were frozen at -80°C before analysis. A volume of 400 µL of each sample of plasma was mixed with 1 ml of acetonitrile to precipitate the protein and extract the compound. The sample were then vortexed and centrifuged (15 000 × g, 5 min, 16 °C) to sediment the precipitated protein.
The supernatant was analysed by LC-MS/MS using a UHPLC coupled to LC-MS 8030 Shimadzu triple […]
Molecular dynamics simulation of GLP-1R in complex with ureidopeptide 3 […]
Human GLP-1R which shares […]

[1] = healthy C57BL/6J mice, 0.01 to 10 nmol kg-1 i.p., IPGTT 6 h after dose, 3-parameter fit of AUC, n = 8

{X1-CO}-EGTFTSDLSKQLEEEAVRLFIEWLKNGGPSSGAPPSKKKKKK-NH2 [compound 14]
improvement of ED50 versus parent peptide (11 versus exenatide (9), 14 versus LixiL (13)): five-fold improvement
ED50 (printed in Fig. 4) [1]: 0.47
ED50 in vivo [1]: 0.46 nmol/kg
